# Literature values as cited in US20250170152A1, “Cannabinoid Dosage Form” (priority 2022, published 2025).
# Where two headings read alike, the source gives them in different places.
# Legend:
# [1] = not given; remark: listed apart in the source
# [2] = oral THC formulations
# [3] = oral 800 mg CBD, eight subjects (Haney et al., 2016)
# [4] = 20 mg/kg/day CBD groups, EMA LGS/DS Assessment Report (Epidiolex)
SMILES,"mean Cmax (one hour after oral capsule containing 5.4 mg CBD (Nadulski et al., 2005a)) [ng/mL]","mean Cmax (oral 10 mg CBD (Guy and Robson, 2004b)) [ng/mL]",mean Cmax [3] [ng/mL],mean Tmax [3] [h],"time CBD remained detectable after administration (oral capsule 5.4 mg CBD (Nadulski et al., 2005b)) [h]","mean Cmax (oral capsule 5.4 mg CBD, subset (n=12) with standard breakfast meal 1 h after the capsules) [ng/mL]","TEAE decrease of appetite, incidence [1, 4] [%]","weight loss, incidence [1, 4] [%]","TEAE of diarrhoea, incidence ([1]; 5-20 mg/kg/day, LGS/DS population (Epidiolex))","TEAE of diarrhoea, incidence ([1]; 25-50 mg/kg/day, TSC population, EMA TSC Assessment Report (Epidiolex))",delay to reach peak plasma concentration [2] [min]
"C=C(C)C1CCC(C)=CC1c1c(O)cc(CCCCC)cc1O (centres unmarked) [CBD, 2-[3-methyl-6-(1-methylethenyl)-2-cyclohexen-1-yl]-5-pentyl-1,3-benzenediol]",0.93,2.47,77.9,3.0,3 to 4,1.13,22,11,12.9-21.2%,30.7-56.2%,–
"CCCCCc1cc(O)c2c(c1)OC(C)(C)[C@@H]1CCC(C)=C[C@@H]21 [THC, delta-9-tetrahydrocannabinol]",–,–,–,–,–,–,–,–,–,–,~120
